We go through 1 molecule from ChEMBL document CHEMBL3407345, “Synthesis and biological evaluation of pyridazino[1',6':1,2]pyrido[3,4-b]indolinium and pyridazino[1,6-a]benzimidazolium salts as anti-inflammatory agents” (Eur J Med Chem, 2015).

Data set [1] can be described thus: Anti-inflammatory activity in CD14 expressing human monocytes assessed as inhibition of LPS-stimulated TNFalpha production at 10 uM incubated for 24 hrs followed by further stimulation with LPS during last 4 hrs by ELISA method. In kind it is functional. The conditions noted are these: Monocyte. Background: ELISA stands for enzyme-linked immunosorbent assay.
The species entered for data set [2] is Homo sapiens. The data set can be described thus: Anti-inflammatory activity in human MDDC assessed as inhibition of poly I:C stimulated-TNFalpha production at 1 and 5 uM pre-incubated for 1 hr followed by overnight poly I:C stimulation by ELISA method. It is filed as functional.
Data set [3] can be described thus: Anti-inflammatory activity in CD14 expressing human monocytes assessed as inhibition of LPS-stimulated TNFalpha production at 2.5 uM incubated for 24 hrs followed by further stimulation with LPS during last 4 hrs by ELISA method. It is filed as functional. The following applies: Monocyte.
Data set [4] concerns Mus musculus. The data set can be described thus: Inhibition of LPS-stimulated TNFalpha production in spelnocytes derived from C57BL/6 mouse treated with two doses of compound at 2 mg/kg, ip at interval of 18 hrs measured 4 hrs after second dose by cytometric bead array method. On the set-up: dose 2 mg/kg. In kind it is functional, organism-based.
The nature of data set [5]: Anti-inflammatory activity in CD14 expressing human monocytes assessed as inhibition of LPS-stimulated TNFalpha production incubated for 24 hrs followed by further stimulation with LPS during last 4 hrs by ELISA method. In kind it is functional, cell-based. The conditions noted are these: Monocyte.
Data set [6] has as its system PBMC. The data set can be described thus: Anti-inflammatory activity in human PBMC assessed as inhibition of LPS-stimulated TNFalpha production at 5 uM incubated for 24 hrs followed by further stimulation with LPS during last 4 hrs by ELISA method. It is filed as functional.
A short description of data set [7]: Toxicity against human THP1 cells assessed as cell viability at 10 uM incubated for 24 hrs by propidium iodide staining based flow cytometry. The following applies: thp-1, 24 h. (In flow cytometry, cells or beads pass a laser one at a time.)
Data set [8] can be described thus: Anti-inflammatory activity in human THP1 cells assessed as inhibition of LPS-stimulated TNFalpha production at 0.1 uM incubated for 24 hrs followed by further stimulation with LPS during last 4 hrs by ELISA method. The following applies: THP-1. It is filed as functional.
The nature of data set [9]: Anti-inflammatory activity in CD14 expressing human monocytes assessed as inhibition of LPS-stimulated TNFalpha production at 1 uM incubated for 24 hrs followed by further stimulation with LPS during last 4 hrs by ELISA method. In kind it is functional. The following applies: Monocyte.
The subject of data set [10] is PBMC. The data set can be described thus: Anti-inflammatory activity in human PBMC assessed as inhibition of LPS-stimulated TNFalpha production incubated for 24 hrs followed by further stimulation with LPS during last 4 hrs by ELISA method. In kind it is functional, cell-based.
Data set [11] can be described thus: Anti-inflammatory activity in human THP1 cells assessed as inhibition of LPS-stimulated TNFalpha production incubated for 24 hrs followed by further stimulation with LPS during last 4 hrs by ELISA method. In kind it is functional, cell-based. The following applies: THP-1.
The nature of data set [12]: Toxicity against LPS-stimulated human THP1 cells assessed as cell viability at 10 uM incubated for 24 hrs by propidium iodide staining based flow cytometry. The conditions noted are these: thp-1, 24 h.
A short description of data set [13]: Anti-inflammatory activity in human THP1 cells assessed as inhibition of LPS-stimulated TNFalpha production at 10 uM incubated for 24 hrs followed by further stimulation with LPS during last 4 hrs by ELISA method. In kind it is functional. The following applies: THP-1.
Data set [14] has as its system Monocyte. The data set can be described thus: Anti-inflammatory activity in human monocytes assessed as inhibition of poly I:C stimulated-IL12 production at 1 and 5 uM pre-incubated for 1 hr followed by overnight poly I:C stimulation by cytometric bead array method. In kind it is functional, cell-based.
A short description of data set [15]: Toxicity against LPS-stimulated human THP1 cells assessed as cell viability at 10 uM incubated for 24 hrs by propidium iodide staining based flow cytometry relative to control. Details: species or system THP-1. The conditions noted are these: read-out: Activity.
In data set [16] the test system is Monocyte. The data set can be described thus: Anti-inflammatory activity in human monocytes assessed as inhibition of poly I:C stimulated-TNFalpha production at 1 and 5 uM pre-incubated for 1 hr followed by overnight poly I:C stimulation by ELISA method. In kind it is functional, cell-based.
Data set [17] has as its system PBMC. The data set can be described thus: Anti-inflammatory activity in human PBMC assessed as inhibition of LPS-stimulated TNFalpha production at 0.1 uM incubated for 24 hrs followed by further stimulation with LPS during last 4 hrs by ELISA method. In kind it is functional.
The species named for data set [18] is Homo sapiens. The data set can be described thus: Anti-inflammatory activity in human MDDC assessed as inhibition of poly I:C stimulated-IL12 production at 1 and 5 uM pre-incubated for 1 hr followed by overnight poly I:C stimulation by cytometric bead array method. It is filed as functional.
For data set [19], the system named is Monocyte. The data set can be described thus: Anti-inflammatory activity in CD14 expressing human monocytes assessed as inhibition of LPS-stimulated TNFalpha mRNA expression overnight incubated with 1 uM compound followed by further stimulation with LPS for 2 hrs by quantitative RT-PCR analysis. It is filed as functional, cell-based.
The nature of data set [20]: Anti-inflammatory activity in human THP1 cells assessed as inhibition of LPS-stimulated TNFalpha production at 1 uM incubated for 24 hrs followed by further stimulation with LPS during last 4 hrs by ELISA method. It is filed as functional. The following applies: THP-1.
The test system of data set [21] is PBMC. The data set can be described thus: Anti-inflammatory activity in human PBMC assessed as inhibition of LPS-stimulated TNFalpha production at 1 uM incubated for 24 hrs followed by further stimulation with LPS during last 4 hrs by ELISA method. It is filed as functional.
Data set [22] is described as follows: Anti-inflammatory activity in human THP1 cells assessed as inhibition of LPS-stimulated TNFalpha production at 5 uM incubated for 24 hrs followed by further stimulation with LPS during last 4 hrs by ELISA method. The conditions noted are these: THP-1. In kind it is functional.
Data set [23] has as its system PBMC. The data set can be described thus: Anti-inflammatory activity in human PBMC assessed as inhibition of LPS-stimulated TNFalpha production at 10 uM incubated for 24 hrs followed by further stimulation with LPS during last 4 hrs by ELISA method. It is filed as functional.
The nature of data set [24]: Anti-inflammatory activity in CD14 expressing human monocytes assessed as inhibition of LPS-stimulated TNFalpha production at 0.5 uM incubated for 24 hrs followed by further stimulation with LPS during last 4 hrs by ELISA method. In kind it is functional. The following applies: Monocyte.

Active and inactive are the calls of the source. No cut-off for these calls is given here.

In general, inhibition refers to the drop in the measured response relative to a control, in per cent. What is called IC50 is the concentration that gives 50% inhibition. With `COc1ccc2c(c1)[nH]c1c2cc[n+]2nc(C)c(C)cc12.[Br-]`, the inhibition at 10 µM in data set [1] is 95.3%; in data set [13], 87.8%; in data set [23], 69.2%. The inhibition entry in [2], in data set [4], in data set [14], in [16], in [18] and in data set [19] was “Active” in each case. Besides, in [3], the inhibition at 2.5 µM amounted to 56.4%. In addition, the 50% inhibitory concentration (IC50) in data set [5] came out at 1.82 µM; in [10] it was 3.91 µM; in data set [11], 4.49 µM. The results for the inhibition at 5 µM in data set [6] and in data set [22] were 71.2% and 63.4%, respectively. Also, the Activity entry in data set [7] and in [12] was “Non-toxic” in each case. The inhibition at 0.1 µM in [8] was -0.97%; in data set [17], 22.7%. For the same molecule, the figures for the inhibition at 1 µM in data set [9], in data set [20] and in data set [21] were 38.1%, 34.9% and 38.8%, respectively. In [15], the viability at 24 h, 10 µM worked out at 61.3%. The inhibition at 0.5 µM in data set [24] worked out at 28.6%.
